According to patent US11464770B2, “Anticancer pharmaceutical composition” (NATIONAL CANCER CENTER, priority 2016, dated 2022):
Where two headings read alike, the source gives them in different places.

Legend:
[1] = test system: prostate cancer cell lines (e.g. DU145/TXR); test: Cell based assay, cell viability (CellTiter-Glo), prostate cancer cell lines; details: Homo sapiens, 72 hours treatment, final concentration 0 to 2 μM
Procedure, shortened: (§1)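 Cells were trypsinized, seeded, and left 24 h before compound was added at 0 to 2 μM final. After a further 72 h of culture, viability was read by ATP-based luminescence.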

[2] = test system: lung cancer cell lines (e.g. NCI-H23, NCI-H1229); test: Cell based assay, cell viability (CellTiter-Glo), lung cancer cell lines; details: Homo sapiens, 72 hours treatment, CellTiter-Glo
Procedure, shortened: as §1

renal cancer cell lines = test: Cell based assay, cell viability (CellTiter-Glo), renal cancer cell lines; details: Homo sapiens; ACHN cells
Procedure, shortened: as §1

[3] = CWR22 cells, read-out: IC50, prostate cancer cell line CWR22
[4] = DU-145, DU145/TXR cells, read-out: IC50, prostate cancer cell line DU145/TXR
[5] = DU-145, DU145 cells, read-out: IC50, prostate cancer cell line DU145
[6] = LNcap cells, read-out: IC50, prostate cancer cell line LNcap
[7] = PC-3 cells, read-out: IC50, prostate cancer cell line PC-3
[8] = A549 cells, read-out: IC50, lung cancer cell line A549
[9] = DMS 114 cells, read-out: IC50, lung cancer cell line DMS 114
[10] = NCI-H23 cells, read-out: IC50, lung cancer cell line NCI-H23
[11] = NCI-H460 cells, read-out: IC50, lung cancer cell line NCI-H460
[12] = NCI-H522 cells, read-out: IC50, lung cancer cell line NCI-H522
[13] = NCI-H1299 cells, read-out: IC50, lung cancer cell line NCI-H1299
[14] = NCI-H1437 cells, read-out: IC50, lung cancer cell line NCI-H1437

CC(=O)c1c([S+]([O-])Cc2cc(Cl)ccc2Cl)[nH]c2c(Br)ccc(Cl)c2c1=O (stereo not drawn) [Compound 44, 3-acetyl-8-bromo-5-chloro-2-((2,5-dichlorobenzyl)sulfinyl)quinolin-4(1H)-one]
IC50 [1, 3]: 1580 nM | IC50 [1, 4]: 1000 nM | IC50 [1, 5]: 1600 nM | IC50 [1, 6]: 1980 nM | IC50 [1, 7]: 1490 nM | IC50 [2, 8]: 1870 nM | IC50 [2, 9]: > 2000 nM | IC50 ([2]; MRC-5 cells, read-out: IC50): 960 nM | IC50 [2, 10]: 960 nM | IC50 [2, 11]: 1750 nM | IC50 [2, 12]: > 2000 nM | IC50 [2, 13]: 1280 nM | IC50 [2, 14]: > 10000 nM | IC50 (renal cancer cell lines): > 2000 nM

CC(=O)c1c([S+]([O-])Cc2cc(F)cc(F)c2)[nH]c2c(Br)ccc(Cl)c2c1=O (stereo not drawn) [Compound 46, 3-acetyl-8-bromo-5-chloro-2-((3,5-difluorobenzyl)sulfinyl)quinolin-4(1H)-one]
IC50 [1, 3]: > 2000 nM | IC50 [1, 4]: 1560 nM | IC50 [1, 5]: > 2000 nM | IC50 [1, 6]: > 2000 nM | IC50 [1, 7]: > 2000 nM | IC50 [2, 8]: > 2000 nM | IC50 [2, 9]: > 2000 nM | IC50 ([2]; MRC-5 cells, read-out: IC50): > 2000 nM | IC50 [2, 10]: 1270 nM | IC50 [2, 11]: > 2000 nM | IC50 [2, 12]: > 2000 nM | IC50 [2, 13]: 1870 nM | IC50 [2, 14]: > 10000 nM | IC50 (renal cancer cell lines): > 2000 nM

Cc1cc(C[S+]([O-])c2[nH]c3c(Cl)ccc(Cl)c3c(=O)c2C(=O)C(C)C)no1 (stereo not drawn) [Compound 86, 5,8-dichloro-3-isobutyryl-2-(((5-methylisoxazol-3-yl)methyl)sulfinyl)quinolin-4(1H)-one]
IC50 [1, 3]: 1260 nM | IC50 [1, 4]: 1110 nM | IC50 [1, 5]: 1310 nM | IC50 [1, 6]: > 2000 nM | IC50 [1, 7]: 1670 nM | IC50 [2, 8]: 1190 nM | IC50 [2, 9]: > 2000 nM | IC50 ([2]; MRC-5 cells, read-out: IC50): 1130 nM | IC50 [2, 10]: 710 nM | IC50 [2, 11]: 1490 nM | IC50 [2, 12]: 1090 nM | IC50 [2, 13]: 1230 nM | IC50 [2, 14]: < 2000 nM | IC50 (renal cancer cell lines): 1330 nM

CC(=O)c1c([S+]([O-])Cc2cc(C)on2)[nH]c2c(Br)ccc(Cl)c2c1=O (stereo not drawn) [Compound 51, 3-acetyl-8-bromo-5-chloro-2-(((5-methylisoxazol-3-yl)methyl)sulfinyl)quinolin-4(1H)-one]
IC50 [1, 3]: 1030 nM | IC50 [1, 4]: 1120 nM | IC50 [1, 5]: 1240 nM | IC50 [1, 6]: 1240 nM | IC50 [1, 7]: 1360 nM | IC50 [2, 8]: > 2000 nM | IC50 [2, 9]: > 2000 nM | IC50 ([2]; MRC-5 cells, read-out: IC50): 580 nM | IC50 [2, 10]: 770 nM | IC50 [2, 11]: 1620 nM | IC50 [2, 12]: 1730 nM | IC50 [2, 14]: > 10000 nM | IC50 (renal cancer cell lines): > 2000 nM

CC(=O)c1c(S(=O)(=O)Cc2ccccc2)[nH]c2c(Br)ccc(Cl)c2c1=O [Compound 34, 3-acetyl-2-(benzylsulfonyl)-8-bromo-5-chloroquinolin-4(1H)-one]
IC50 [1, 3]: > 2000 nM | IC50 [1, 4]: 1590 nM | IC50 [1, 5]: > 2000 nM | IC50 [2, 8]: > 2000 nM | IC50 [2, 9]: > 2000 nM | IC50 ([2]; MRC-5 cells, read-out: IC50): > 2000 nM | IC50 [2, 10]: 1390 nM | IC50 [2, 11]: > 2000 nM | IC50 [2, 12]: > 2000 nM | IC50 [2, 13]: 2000 nM | IC50 [2, 14]: > 10000 nM | IC50 (renal cancer cell lines): > 2000 nM

Cc1cc(C[S+]([O-])c2[nH]c3c(Br)ccc(Cl)c3c(=O)c2C(=O)C(C)C)no1 (stereo not drawn) [Compound 95, 8-bromo-5-chloro-3-isobutyryl-2-(((5-methylisoxazol-3-yl)methyl)sulfinyl)quinolin-4(1H)-one]
IC50 [1, 3]: 1080 nM | IC50 [1, 4]: 940 nM | IC50 [1, 5]: 840 nM | IC50 [1, 6]: 1980 nM | IC50 [1, 7]: 1700 nM | IC50 [2, 8]: 940 nM | IC50 [2, 9]: > 2000 nM | IC50 ([2]; MRC-5 cells, read-out: IC50): 970 nM | IC50 [2, 10]: 720 nM | IC50 [2, 11]: 1400 nM | IC50 [2, 12]: 1010 nM | IC50 [2, 13]: 1060 nM | IC50 [2, 14]: < 2000 nM | IC50 (renal cancer cell lines): 1190 nM

CC(=O)c1c([S+]([O-])Cc2ccc(C(F)(F)F)o2)[nH]c2c(Br)ccc(Cl)c2c1=O (stereo not drawn) [Compound 72, 3-acetyl-8-bromo-5-chloro-2-(((5-(trifluoromethyl)furan-2-yl)methyl)sulfinyl)quinolin-4(1H)-one]
IC50 [1, 3]: 1520 nM | IC50 [1, 4]: 890 nM | IC50 [1, 5]: 710 nM | IC50 [1, 6]: 1910 nM | IC50 [1, 7]: 1280 nM | IC50 [2, 8]: 1790 nM | IC50 [2, 9]: 1940 nM | IC50 ([2]; MRC-5 cells, read-out: IC50): 720 nM | IC50 [2, 10]: 710 nM | IC50 [2, 11]: 1540 nM | IC50 [2, 12]: > 2000 nM | IC50 [2, 13]: 1210 nM | IC50 [2, 14]: > 10000 nM | IC50 (renal cancer cell lines): > 2000 nM

COc1cccc(C[S+]([O-])c2[nH]c3c(Br)ccc(Cl)c3c(=O)c2C(C)=O)c1 (stereo not drawn) [Compound 55, 3-acetyl-8-bromo-5-chloro-2-((3-methoxybenzyl)sulfinyl)quinolin-4(1H)-one]
IC50 [1, 3]: > 2000 nM | IC50 [1, 4]: 1390 nM | IC50 [1, 5]: > 2000 nM | IC50 [1, 6]: > 2000 nM | IC50 [1, 7]: 1930 nM | IC50 [2, 8]: > 2000 nM | IC50 [2, 9]: > 2000 nM | IC50 ([2]; MRC-5 cells, read-out: IC50): > 2000 nM | IC50 [2, 10]: 1280 nM | IC50 [2, 11]: > 2000 nM | IC50 [2, 12]: > 2000 nM | IC50 [2, 13]: > 2000 nM | IC50 [2, 14]: > 10000 nM | IC50 (renal cancer cell lines): > 2000 nM

CC(=O)c1c([S+]([O-])Cc2ccc(SC(F)(F)F)cc2)[nH]c2c(Br)ccc(Cl)c2c1=O (stereo not drawn) [Compound 56, 3-acetyl-8-bromo-5-chloro-2-((4-((trifluoromethyl)thio)benzyl)sulfinyl)quinolin-4(1H)-one]
IC50 [1, 3]: 1550 nM | IC50 [1, 4]: 860 nM | IC50 [1, 5]: 1420 nM | IC50 [1, 6]: 1820 nM | IC50 [1, 7]: 1300 nM | IC50 [2, 8]: 1700 nM | IC50 [2, 9]: > 2000 nM | IC50 ([2]; MRC-5 cells, read-out: IC50): 1240 nM | IC50 [2, 10]: 1040 nM | IC50 [2, 11]: 1900 nM | IC50 [2, 12]: > 2000 nM | IC50 [2, 13]: > 2000 nM | IC50 [2, 14]: > 10000 nM | IC50 (renal cancer cell lines): > 2000 nM
